In one experiment the test system is DOHH2 cells. The experiment can be described thus: Cell proliferation assay (MTS), DOHH2 cells, 120 h. Format: cell-based. The settings on record: Homo sapiens, DOHH-2, 120 h. The gist of the method: (§1)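 Proliferation was scored by MTS (2 h, then SDS stop, A490 with 650 nm reference) and IC50 derived. Compound ran at nine final concentrations from 1.5 to 10000 nM. DOHH2 were incubated 120 h and RS4;11 72 h, both plated at 5000 cells/well in RPMI-1640 plus 10% FBS.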

The subject of the next experiment is RS4;11 cells. Description: Cell proliferation assay (MTS), RS4;11 cells, 72 h. Format: cell-based. The settings on record: Homo sapiens, RS4-11, 72 h. The method in brief:
as §1

Results on 15 molecules are retold here after patent US11091478B2 (Fochon Pharmaceuticals, Ltd., priority 2017, dated 2021).

Each structure is given as a SMILES string.

In the case of `CC1(C)CCC(CN2CCN(c3ccc(C(=O)NS(=O)(=O)c4cc5c(c([N+](=O)[O-])c4)N[C@@H](CCN4CCOCC4)CO5)c(Oc4cnc5[nH]ccc5c4)c3)CC2)=C(c2ccc(Cl)cc2)C1` [Example 2-10, (S)-2-((1H-pyrrolo[2,3-b]pyridin-5-yl)oxy)-4-(4-((4′-chloro-5,5-dimethyl-3,4,5,6-tetra-hydro-[1,1′-biphenyl]-2-yl)methyl)piperazin-1-yl)-N-((3-(2-morpholinoethyl)-5-nitro-3,4-dihydro-2H-benzo[b][1,4]oxazin-7-yl)sulfonyl)benzamide], the IC50 in the experiment with DOHH2 cells is 28 nM; in the experiment on RS4;11 cells it was 9 nM.

With `CC1(C)CCC(CN2CCN(c3ccc(C(=O)NS(=O)(=O)c4cc5c(c([N+](=O)[O-])c4)N[C@@H](CCN4CCC(C)(O)CC4)CO5)c(Oc4cnc5[nH]ccc5c4)c3)CC2)=C(c2ccc(Cl)cc2)C1` [Example 2-11, (S)-2-((1H-pyrrolo[2,3-b]pyridin-5-yl)oxy)-4-(4-((4′-chloro-5,5-dimethyl-3,4,5,6-tetra-hydro-[1,1′-biphenyl]-2-yl)methyl)piperazin-1-yl)-N-((3-(2-(4-hydroxy-4-methylpiper-idin-1-yl)ethyl)-5-nitro-3,4-dihydro-2H-benzo[b][1,4]oxazin-7-yl)sulfonyl)benzamide], the IC50 in the experiment with DOHH2 cells is 53 nM; in the experiment on RS4;11 cells it was 12 nM.

On to `CN(C)CC[C@H]1COc2cc(S(=O)(=O)NC(=O)c3ccc(N4CCN(CC5=C(c6ccc(Cl)cc6)CC(C)(C)CC5)CC4)cc3Oc3cnc4[nH]ccc4c3)cc([N+](=O)[O-])c2N1` [Example 2-12, (S)-2-((1H-pyrrolo[2,3-b]pyridin-5-yl)oxy)-4-(4-((4′-chloro-5,5-dimethyl-3,4,5,6-tetra-hydro-[1,1′-biphenyl]-2-yl)methyl)piperazin-1-yl)-N-((3-(2-(dimethylamino)ethyl)-5-nitro-3,4-dihydro-2H-benzo[b][1,4]oxazin-7-yl)sulfonyl)benzamide], for which the IC50 in the experiment on DOHH2 cells stood at 19 nM; in the experiment on RS4;11 cells, 1 nM.

Regarding `CC1(C)CCC(CN2CCN(c3ccc(C(=O)NS(=O)(=O)c4cc5c(c([N+](=O)[O-])c4)N[C@@H](CCO)CO5)c(Oc4cnc5[nH]ccc5c4)c3)CC2)=C(c2ccc(Cl)cc2)C1` [Example 2-13, (S)-2-((1H-pyrrolo[2,3-b]pyridin-5-yl)oxy)-4-(4-((4′-chloro-5,5-dimethyl-3,4,5,6-tetra-hydro-[1,1′-biphenyl]-2-yl)methyl)piperazin-1-yl)-N-((3-(2-hydroxyethyl)-5-nitro-3,4-dihydro-2H-benzo[b][1,4]oxazin-7-yl)sulfonyl)benzamide], the IC50 with DOHH2 cells worked out at 33 nM; in the experiment on RS4;11 cells, 9 nM.

For `CN1CCN(CC[C@@H]2COc3cc(S(=O)(=O)NC(=O)c4ccc(N5CCN(CC6=C(c7ccc(Cl)cc7)CC(C)(C)CC6)CC5)cc4Oc4cnc5[nH]ccc5c4)cc([N+](=O)[O-])c3N2)CC1` [Example 2-14, (R)-2-((1H-pyrrolo[2,3-b]pyridin-5-yl)oxy)-4-(4-((4′-chloro-5,5-dimethyl-3,4,5,6-tetra-hydro-[1,1′-biphenyl]-2-yl)methyl)piperazin-1-yl)-N-((3-(2-(4-methylpiperazin-1-yl)eth-yl)-5-nitro-3,4-dihydro-2H-benzo[b][1,4]oxazin-7-yl)sulfonyl)benzamide], the results for the IC50 in the experiment with DOHH2 cells and in the experiment with RS4;11 cells were 15 nM and 4 nM, respectively.

`CC1(C)CCC(CN2CCN(c3ccc(C(=O)NS(=O)(=O)c4cc5c(c([N+](=O)[O-])c4)N[C@H](CCN4CCC(C)(O)CC4)CO5)c(Oc4cnc5[nH]ccc5c4)c3)CC2)=C(c2ccc(Cl)cc2)C1` [Example 2-15, (R)-2-((1H-pyrrolo[2,3-b]pyridin-5-yl)oxy)-4-(4-((4′-chloro-5,5-dimethyl-3,4,5,6-tetra-hydro-[1,1′-biphenyl]-2-yl)methyl)piperazin-1-yl)-N-((3-(2-(4-hydroxy-4-methylpiper-idin-1-yl)ethyl)-5-nitro-3,4-dihydro-2H-benzo[b][1,4]oxazin-7-yl)sulfonyl)benzamide]: the IC50 was 50 nM in the experiment on DOHH2 cells and 20 nM with RS4;11 cells.

As to `CN(C)CC[C@@H]1COc2cc(S(=O)(=O)NC(=O)c3ccc(N4CCN(CC5=C(c6ccc(Cl)cc6)CC(C)(C)CC5)CC4)cc3Oc3cnc4[nH]ccc4c3)cc([N+](=O)[O-])c2N1` [Example 2-16, (R)-2-((1H-pyrrolo[2,3-b]pyridin-5-yl)oxy)-4-(4-((4′-chloro-5,5-dimethyl-3,4,5,6-tetra-hydro-[1,1′-biphenyl]-2-yl)methyl)piperazin-1-yl)-N-((3-(2-(dimethylamino)ethyl)-5-nitro-3,4-dihydro-2H-benzo[b][1,4]oxazin-7-yl)sulfonyl)benzamide], the IC50 was determined as 34 nM with DOHH2 cells and 4 nM in the experiment with RS4;11 cells.

On to `CC1(C)CCC(CN2CCN(c3ccc(C(=O)NS(=O)(=O)c4cc5c(c([N+](=O)[O-])c4)N[C@H](CCO)CO5)c(Oc4cnc5[nH]ccc5c4)c3)CC2)=C(c2ccc(Cl)cc2)C1` [Example 2-17, (R)-2-((1H-pyrrolo[2,3-b]pyridin-5-yl)oxy)-4-(4-((4′-chloro-5,5-dimethyl-3,4,5,6-tetra-hydro-[1,1′-biphenyl]-2-yl)methyl)piperazin-1-yl)-N-((3-(2-hydroxyethyl)-5-nitro-3,4-dihydro-2H-benzo[b][1,4]oxazin-7-yl)sulfo-nyl)benzamide], for which the IC50 with DOHH2 cells amounted to 20 nM; in the experiment with RS4;11 cells, 8 nM.

With `CC1(C)CCC(CN2CCN(c3ccc(C(=O)NS(=O)(=O)c4cc5c(c([N+](=O)[O-])c4)N[C@@H](CN4CCOCC4)CO5)c(Oc4cnc5[nH]ccc5c4)c3)CC2)=C(c2ccc(Cl)cc2)C1` [Example 2-18, (S)-2-((1H-pyrrolo[2,3-b]pyridin-5-yl)oxy)-4-(4-((4′-chloro-5,5-dimethyl-3,4,5,6-tetra-hydro-[1,1′-biphenyl]-2-yl)methyl)piperazin-1-yl)-N-((3-(morpholinomethyl)-5-nitro-3,4-dihydro-2H-benzo[b][1,4]oxazin-7-yl)sulfonyl)benzamide], the IC50 with DOHH2 cells came to 9 nM; with RS4;11 cells, 4 nM.

Take `CC1(C)CCC(CN2CCN(c3ccc(C(=O)NS(=O)(=O)c4cc5c(c([N+](=O)[O-])c4)N[C@@H](CN4CCC(C)(O)CC4)CO5)c(Oc4cnc5[nH]ccc5c4)c3)CC2)=C(c2ccc(Cl)cc2)C1` [Example 2-19, (S)-2-((1H-pyrrolo[2,3-b]pyridin-5-yl)oxy)-4-(4-((4′-chloro-5,5-dimethyl-3,4,5,6-tetra-hydro-[1,1′-biphenyl]-2-yl)methyl)piperazin-1-yl)-N-((3-((4-hydroxy-4-methylpiperidin-1-yl)methyl)-5-nitro-3,4-dihydro-2H-ben-zo[b][1,4]oxazin-7-yl)sulfonyl)benzamide]: the values for the IC50 with DOHH2 cells and in the experiment with RS4;11 cells were 70 nM and 36 nM, respectively.

`CN(C)C[C@H]1COc2cc(S(=O)(=O)NC(=O)c3ccc(N4CCN(CC5=C(c6ccc(Cl)cc6)CC(C)(C)CC5)CC4)cc3Oc3cnc4[nH]ccc4c3)cc([N+](=O)[O-])c2N1` [Example 2-20, (S)-2-((1H-pyrrolo[2,3-b]pyridin-5-yl)oxy)-4-(4-((4′-chloro-5,5-dimethyl-3,4,5,6-tetra-hydro-[1,1′-biphenyl]-2-yl)methyl)piperazin-1-yl)-N-((3-((dimethylamino)methyl)-5-nitro-3,4-dihydro-2H-benzo[b][1,4]oxazin-7-yl)sulfonyl)benzamide]: the results for the IC50 in the experiment on DOHH2 cells and in the experiment on RS4;11 cells were 59 nM and 29 nM, respectively.

On to `CC1(C)CCC(CN2CCN(c3ccc(C(=O)NS(=O)(=O)c4cc5c(c([N+](=O)[O-])c4)N[C@H](CN4CC(C)(O)C4)CO5)c(Oc4cnc5[nH]ccc5c4)c3)CC2)=C(c2ccc(Cl)cc2)C1` [Example 2-21, (R)-2-((1H-pyrrolo[2,3-b]pyridin-5-yl)oxy)-4-(4-((4′-chloro-5,5-dimethyl-3,4,5,6-tetra-hydro-[1,1′-biphenyl]-2-yl)methyl)piperazin-1-yl)-N-((3-((3-hydroxy-3-methylazetidin-1-yl)methyl)-5-nitro-3,4-dihydro-2H-ben-zo[b][1,4]oxazin-7-yl)sulfonyl)benzamide], for which the IC50 in the experiment on DOHH2 cells was 8 nM; in the experiment on RS4;11 cells, 1 nM.

Regarding `C[C@@H]1CN(C[C@@H]2COc3cc(S(=O)(=O)NC(=O)c4ccc(N5CCN(CC6=C(c7ccc(Cl)cc7)CC(C)(C)CC6)CC5)cc4Oc4cnc5[nH]ccc5c4)cc([N+](=O)[O-])c3N2)CCN1C1COC1` [Example 2-22, 2-((1H-pyrrolo[2,3-b]pyridin-5-yl)oxy)-4-(4-((4′-chloro-5,5-dimethyl-3,4,5,6-tetra-hydro-[1,1′-biphenyl]-2-yl)methyl)piperazin-1-yl)-N-(((R)-3-(((R)-3-methyl-4-(oxetan-3-yl)piperazin-1-yl)methyl)-5-nitro-3,4-dihydro-2H-benzo[b][1,4]oxazin-7-yl)sulfonyl) benzamide], the values for the half-inhibitory concentration (IC50) with DOHH2 cells and in the experiment with RS4;11 cells were 2 nM and 1 nM, respectively.

On to `C[C@@H]1CN(C[C@@H]2COc3cc(S(=O)(=O)NC(=O)c4ccc(N5CCN(CC6=C(c7ccc(Cl)cc7)CC(C)(C)CC6)CC5)cc4Oc4cnc5[nH]ccc5c4)cc([N+](=O)[O-])c3N2)CCO1` [Example 2-23, 2-((1H-pyrrolo[2,3-b]pyridin-5-yl)oxy)-4-(4-((4′-chloro-5,5-dimethyl-3,4,5,6-tetra-hydro-[1,1′-biphenyl]-2-yl)methyl)piperazin-1-yl)-N-(((R)-3-(((R)-2-methylmorpholino)methyl)-5-nitro-3,4-dihydro-2H-benzo[b][1,4]oxazin-7-yl)sulfonyl)benzamide], for which the 50% inhibitory concentration (IC50) with DOHH2 cells turned out to be 33 nM; with RS4;11 cells it was 7 nM.

Take `CC1(C)CCC(CN2CCN(c3ccc(C(=O)NS(=O)(=O)c4cc5c(c([N+](=O)[O-])c4)N[C@@H](CN4CC(O)C4)CO5)c(Oc4cnc5[nH]ccc5c4)c3)CC2)=C(c2ccc(Cl)cc2)C1` [Example 2-24, (S)-2-((1H-pyrrolo[2,3-b]pyridin-5-yl)oxy)-4-(4-((4′-chloro-5,5-dimethyl-3,4,5,6-tetra-hydro-[1,1′-biphenyl]-2-yl)methyl)piperazin-1-yl)-N-((3-((3-hydroxyazetidin-1-yl)meth-yl)-5-nitro-3,4-dihydro-2H-benzo[b][1,4]oxazin-7-yl)sulfonyl)benzamide]: the IC50 with DOHH2 cells was 115 nM; with RS4;11 cells, 72 nM.

Usually IC50 stands for the concentration that gives 50% inhibition.
